Source: patent US6287840A (Axys Pharmaceuticals, Inc., priority 1999, dated 2001)
Like-named read-outs stand apart in the source and are kept apart here.

Key:
[1] = system: chymotrypsin; experiment: Selectivity versus serine proteases: chymotrypsin; format: biochemical; conditions: 100 μM
[2] = biological target: T1, Cathepsin B from human placenta (Homo sapiens, UniProt P07858); experiment: Inhibition of cathepsin B, Z-Arg-Arg-AMC fluorescence progress curves; format: biochemical; conditions: for Ki: corrected for substrate; for k/KI (kirr/KI): values without asterisk
T1 construct: Cathepsin B from human placenta, obtained from Sigma; purchased Sigma; host or cells: human placenta (tissue)
Summary of the method: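 Human placental enzyme (~10 nM) in 50 mM phosphate pH 6.2 with 2.5 mM DTT and 2.5 mM EDTA, 50 μM Z-Arg-Arg-AMC, inhibitors 30-0.001 μM, 25° C. AMC fluorescence (ex 380/em 460 nm) progress curves fitted for kobs; kobs/[I] reported, with kirr, KI and kirr/KI substrate-corrected for selected compounds.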

[3] = biological target: T2, Cathepsin L from rat liver (Rattus norvegicus, UniProt P07154); experiment: Inhibition of cathepsin L, Z-Phe-Arg-AMC fluorescence progress curves; format: biochemical; conditions: for Ki: corrected for substrate; for k/KI (kirr/KI): values without asterisk; for k/KI (kirr/KI) / kobs /[I]* (approximate second-order inactivation constant): 25° C., pH 6.2; for kobs /[I]* (approximate second-order inactivation constant): values marked *
T2 construct: Cathepsin L from rat liver; from tissue; host or cells: rat liver
Summary of the method: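 Progress curves of AMC release (380/460 nm) over at least 3 inactivation half-times were fitted to kobs, reported as kobs/[I] or, via 1/[I] vs 1/kobs, kirr, KI (substrate-corrected) and kirr/KI.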

[4] = Stability of selected inhibitors toward glutathione (Ellmans reagent); format: physicochemical; conditions: for reaction with GSH: after 24 hours, pH=6.2, 15% DMF, 20° C.
Experimental: The inhibitors (5 mM) were incubated with glutathione (GSH) (0.3 mM) in phosphate buffer (50 mM) at pH=6.2 containing 15% DMF at 20° C. Periodically, 50 μL samples were added to 1 mL of buffer and treated with 10 μL of 30 mM Ellmans reagent and the absorbance measured at 412 nm.

[5] = system: human malarial parasite Plasmodium falciparum; experiment: In vitro protease activity of malarial parasite, substrate Z-Phe-Arg-AMC; format: biochemical; conditions: read-out: P. falciparum IC50 (human)
From the text: (§1) The following table summarizes the comparative IC50 values for selected cysteine protease inhibitors against the human malarial parasite Plasmodium falciparum and the mouse malarial parasite Plasmodium vinckei. The substrate used to measure in vitro protease activity was Z-Phe-Arg-AMC.

[6] = system: mouse malarial parasite Plasmodium vinckei; experiment: as above; format: biochemical; conditions: read-out: P. vinckei IC50 (murine)
From the text: as §1

[7] = biological target: T3, Cloned cathepsin S (Homo sapiens, UniProt P25774); experiment: Inhibition of cathepsin S, Z-Val-Val-Arg-AMC fluorescence progress curves; format: biochemical; conditions: for Ki: corrected for substrate; for k/KI (kirr/KI): values without asterisk; for k/KI (kirr/KI) / kobs /[I]* (approximate second-order inactivation constant): 25° C., pH 6.5; for kobs /[I]* (approximate second-order inactivation constant): values marked *
T3 construct: made in house
Summary of the method: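 Progress curves at 25 °C in 100 mM phosphate pH 6.5, 2.5 mM DTT, 2.5 mM EDTA, 0.01% Triton, enzyme <1 nM, 10 μM substrate, inhibitors 30-0.001 μM; AMC fluorescence ex 380/em 460 nm. kobs from nonlinear fits gave kobs/[I]; selected compounds yielded kirr, KI (substrate-corrected), kirr/KI.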

[8] = biological target: cruzain, from T. cruzi (Trypanosoma cruzi, UniProt P25779); experiment: Inhibition of cruzain, as for cathepsin L; format: biochemical; conditions: for k/KI (kirr/KI): values without asterisk; for kobs /[I]* (approximate second-order inactivation constant): values marked *
Summary of the method: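 Run as for cathepsin L with 1 nM cruzain in 50 mM phosphate pH […], 2.5 mM DTT, 2.5 mM EDTA, 5 μM Z-Phe-Arg-AMC, at 25 °C, inhibitors 30-0.001 μM; fluorescence (ex 380/em 460 nm) followed continuously. kobs fitted from progress curves and kobs/[I] reported; selected compounds gave kirr, KI, kirr/KI, with KI corrected by (1+[S]/Km).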

[9] = system: calpain; experiment: Inhibition (inactivation) of calpain, Suc-Leu-Tyr-AMC; format: biochemical; conditions: values marked * (or %); pH 7.5, 5 mM CaCl2, 25° C.
Experimental: The inhibitors were tested against calpain at 1 or 2% as for the other enzymes. The reaction conditions were 50 mM Tris, pH 7.5, 5 mM CaCl2, 2.5 mM DTT, assayed at 25° C. The substrate was 100 μM Suc-Leu-Tyr-AMC.

[10] = system: Leishmania donovani amastigote infected mouse peritoneal macrophages; experiment: In vitro antiprotozoal activity, Leishmania donovani; format: cell-based; design: key to percentage inhibition, L. donovani: the term "T" indicates the molecule to have displayed cytotoxicity
Experimental: (§2) In this table, the in vitro antiprotozoal activities of the indicated compounds were measured as percentage inhibition of Leishmania donovani amastigote infecteda mouse peritoneal macrophages, Trypanosoma cruzi amastigote infected macrophages, and Trypanosoma brucei extracellular bloodstream forms.

[11] = system: Trypanosoma cruzi amastigote infected macrophages; experiment: In vitro antiprotozoal activity, Trypanosoma cruzi; format: cell-based
Experimental: as §2

[12] = system: Trypanosoma brucei extracellular bloodstream forms; experiment: In vitro antiprotozoal activity, Trypanosoma brucei; format: cell-based
Experimental: as §2

[13] = system: T. cruzi; experiment: T. cruzi infected irradiated J774 cells; format: cell-based; design: dose or concentration left out as unconfirmed; conditions: thereafter without inhibitor; compounds listed in decreasing order of effectiveness
Experimental: Irradiated J774 cells were infected with T. cruzi and simultaneously treated with […] of peptidyl vinyl derivatives for 5 days; thereafter without inhibitor. The following compounds were effective in decreasing order: Mu-Phe-ArgVSPh, Boc-Tyr(I2)-HphVSPh, Mu-Phe-VaIVSPh, Boc-Tic-HphVSPh, Mu-Phe-Ser(OBzl)VSPh, Mu-Leu-HphVSPh, Mu-Tyr(I2)-HphVSPh, Mu-Phe-LysVSPh, Mu-Tic-HphVSPh.

[14] = system: U251MGn; experiment: Matrigel barrier migration assay, U251MGn; format: cell-based, human; design: dose or concentration left out as unconfirmed
Experimental: (§3) Two permanent human glioma cell lines (U87MG and U251MGn) and a well characterized low passage primary culture derived from a CB-positive glioblastoma (HF66) were used to assess the migratory behavior in the Matrigel barrier migration assay in the presence of graded concentrations of four compounds.
(§4) Using the Matrigel assay, Mu-Leu-HphVSPh, Mu-Tyr-HphVSPh, Mu-Phe-HphVSPh, and Mu-Tyr(I2)-HphVSPh (all at 10 mM) inhibited U251MGn by 67, 56, 29, & 20% respectively, while the U87MG cells were inhibited 53, 75, 63, & 56% respectively. The primary culture HF66 cells were inhibited only 10% by these compounds at the same concentration.

[15] = system: U87MG; experiment: Matrigel barrier migration assay, U87MG; format: cell-based, human; design: dose or concentration left out as unconfirmed
Experimental: as §3, §4

T3 sequence (P25774 115-331): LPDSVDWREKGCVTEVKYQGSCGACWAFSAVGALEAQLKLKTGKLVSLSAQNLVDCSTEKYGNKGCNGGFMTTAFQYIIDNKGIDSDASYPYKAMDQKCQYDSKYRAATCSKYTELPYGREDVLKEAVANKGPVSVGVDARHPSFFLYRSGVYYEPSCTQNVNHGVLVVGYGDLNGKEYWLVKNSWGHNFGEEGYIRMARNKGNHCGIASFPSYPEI
T2 sequence (P07154 114-288 limits assumed): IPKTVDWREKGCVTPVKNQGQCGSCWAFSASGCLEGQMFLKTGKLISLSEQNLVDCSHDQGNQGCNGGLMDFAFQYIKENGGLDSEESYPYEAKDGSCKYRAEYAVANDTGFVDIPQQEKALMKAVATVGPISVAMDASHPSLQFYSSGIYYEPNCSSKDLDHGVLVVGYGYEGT
T2 sequence (P07154 291-334 limits assumed): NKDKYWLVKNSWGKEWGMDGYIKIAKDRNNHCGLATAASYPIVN
cruzain, from T. cruzi, sequence (P25779 123-337 limits assumed): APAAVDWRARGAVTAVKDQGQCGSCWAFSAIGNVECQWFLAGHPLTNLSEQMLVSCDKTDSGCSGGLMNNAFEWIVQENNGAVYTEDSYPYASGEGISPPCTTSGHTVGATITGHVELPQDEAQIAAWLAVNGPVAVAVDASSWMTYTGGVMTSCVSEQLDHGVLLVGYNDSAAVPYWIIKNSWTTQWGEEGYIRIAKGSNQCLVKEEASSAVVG

Row | Molecule | kirr [2] | Ki [2] | k/KI (kirr/KI) ([2]; 25° C., pH 6.2) | kirr [3] | Ki [3] | k/KI (kirr/KI) [3] | IC50 ([6]; cells printed in nM) | kirr [7] | Ki [7] | k/KI (kirr/KI) [7] | effectiveness against T. cruzi in J774 cells [13] | kobs /[I]* (approximate second-order inactivation constant) [3] | kobs /[I]* (approximate second-order inactivation constant) [8] | also measured
1 | C[C@H](NC(=O)OC(C)(C)C)C(=O)N[C@H](/C=C/S(=O)(=O)c1ccccc1)Cc1ccccc1 [Boc-Ala-PheVSPh] | – | – | – | – | – | – | – | – | – | – | – | – | – | binding to chymotrypsin ([1]; 100 mM TRIS buffer at pH=7.5): did not bind; inactivation of chymotrypsin ([1]; pH=7.5, after 1 hour): nor did it inactivate
2 | Br.CCOC(=O)/C=C/[C@H](CCCNC(=N)N)NC(=O)[C@H](Cc1ccccc1)NC(=O)N1CCOCC1 [Mu-Phe-ArgVEOEt.HBr, ethyl (S)-(E)-7-guanidino-4-(4-morpholinecarbonylphenylalanyl)amino-2-heptenoatehydrobromide] | 0.16 s⁻¹ | 19 µM | 8200 M⁻¹ s⁻¹ | 0.18 s⁻¹ | 3.1 µM | 56,900 M^-1 sec^-1 | 200 nM | – | – | – | – | – | – | second order rate constant for the loss of GSH ([4]; inhibitor 5 mM, GSH 0.3 mM, pH=6.2, 20° C.): 0.0053 M⁻¹ s⁻¹; times more reactive with GSH ([4]; relative to Mu-Phe-LysVSPh): 10 times; IC50 ([5]; cells printed in nM): 300 nM
3 | Br.N=C(N)NCCC[C@@H](/C=C/S(=O)(=O)c1ccccc1)NC(=O)[C@H](Cc1ccccc1)NC(=O)N1CCOCC1 [Mu-Phe-ArgVSPh.HBr, (S)-(E)-3-(4-morpholinecarbonylphenylalanyl)amino-6-guanidino-1-phenylsulfonyl-1-hexene hydrobromide] | 0.15 s⁻¹ | 12 µM | 12,300 M^-1 sec^-1 | 0.67 s⁻¹ | 1.9 µM | 349,000 M^-1 sec^-1 | 50 nM | 0.031 s⁻¹ | 0.016 µM | 2,000,000 M^-1 sec^-1 | effective | – | – | k/KI (kirr/KI) [8]: 91,400 M^-1 sec^-1; kobs /[I]* [9]: < 50 M⁻¹ s⁻¹; percentage inhibition, L. donovani ([10]; 3 uM): 0%; percentage inhibition, L. donovani ([10]; 10 uM): 0%; percentage inhibition, L. donovani ([10]; 30 uM): 0%; percentage inhibition, L. donovani ([10]; 90 uM): 1.3%; percentage inhibition, T. cruzi ([11]; 3 uM): 0%; percentage inhibition, T. cruzi ([11]; 10 uM): 0%; percentage inhibition, T. cruzi ([11]; 30 uM): 0%; percentage inhibition, T. cruzi ([11]; 90 uM): 5.8%; percentage inhibition, T. brucei ([12]; 3 uM): 0%; percentage inhibition, T. brucei ([12]; 10 uM): 0%; percentage inhibition, T. brucei ([12]; 30 uM): 0%; percentage inhibition, T. brucei ([12]; 90 uM): 0%; IC50 ([5]; cells printed in nM): 50 nM
4 | CCOP(=O)(C/C=C/[C@H](CCc1ccccc1)NC(=O)[C@H](Cc1ccccc1)NC(=O)N1CCOCC1)OCC [Mu-Phe-HphVPEt, diethyl (S)-(E)-4-(4-morpholinecarbonylphenylalanyl)amino-6-phenyl-2-hexenephosphonate] | – | – | – | 0.16 s⁻¹ | 39 µM | 4100 M⁻¹ s⁻¹ | – | 0.40 s⁻¹ | 36 µM | 11,200 M^-1 sec^-1 | – | – | – | reaction with GSH ([4]; inhibitor 5 mM, GSH 0.3 mM): no measurable reaction
5 | CS(=O)(=O)/C=C/[C@H](CCc1ccccc1)NC(=O)[C@H](Cc1ccccc1)NC(=O)N1CCOCC1 [Mu-Phe-HphVSMe, (S)-(E)-5-(4-morpholinecarbonylphenylalanyl)amino-7-phenyl-2-thia-3-heptene 2,2-dioxide] | 0.13 s⁻¹ | 26 µM | 5100 M⁻¹ s⁻¹ | – | – | – | – | 0.10 s⁻¹ | 0.088 µM | – | – | 8700 M⁻¹ s⁻¹ | 22,000 M^-1 sec^-1 | reaction with GSH ([4]; inhibitor 5 mM, GSH 0.3 mM): no measurable reaction; IC50 ([5]; cells printed in μM): 1000 nM; IC50 ([6]; cells printed in μM): 1000 nM
6 | O=C(N[C@H](/C=C/S(=O)(=O)c1ccccc1)CCc1ccccc1)C(Cc1cc(I)c(O)c(I)c1)NC(=O)N1CCOCC1 (stereo partly drawn) [Mu-Tyr(I2)-HphVSPh, (S)-(E)-3-[4-morpholinecarbonyl-(3,5-diiodotyrosyl)]-amino-5-phenyl-1-phenylsulfonyl-1-pentene] | 0.18 s⁻¹ | 4.7 µM | 39,200 M^-1 sec^-1 | – | – | – | – | – | – | – | effective | 190,000 M^-1 sec^-1 | 114,000 M^-1 sec^-1 | kobs /[I]* (approximate second-order inactivation constant) [7]: > 7,300,000 M^-1 sec^-1; inhibition of U251MGn migration [14]: 20%; inhibition of U87MG migration [15]: 56%
7 | (S)-(E)-3-(4-morpholinecarbonylphenylalanyl)amino-4-benzyloxy-1-phenylsulfonyl-1-butene [Mu-Phe-Ser(OBzl)VSPh] | 0.14 s⁻¹ | 47 µM | 2900 M⁻¹ s⁻¹ | 0.20 s⁻¹ | 4.6 µM | 42,700 M^-1 sec^-1 | 500 nM | 0.092 s⁻¹ | 0.074 µM | 1,240,000 M^-1 sec^-1 | effective | – | – | k/KI (kirr/KI) [8]: 12,800 M^-1 sec^-1; kobs /[I]* [9]: < 50 M⁻¹ s⁻¹; percentage inhibition, L. donovani ([10]; 3 uM): 100%; percentage inhibition, L. donovani ([10]; 10 uM): 100%; percentage inhibition, L. donovani ([10]; 30 uM): 100%; percentage inhibition, L. donovani ([10]; 90 uM): T; percentage inhibition, T. cruzi ([11]; 3 uM): 5.2%; percentage inhibition, T. cruzi ([11]; 10 uM): 15.7%; percentage inhibition, T. cruzi ([11]; 30 uM): 15.1%; percentage inhibition, T. cruzi ([11]; 90 uM): 50.7%; percentage inhibition, T. brucei ([12]; 1 uM): 5.2%; percentage inhibition, T. brucei ([12]; 3 uM): 11.5%; percentage inhibition, T. brucei ([12]; 10 uM): 93.3%; percentage inhibition, T. brucei ([12]; 30 uM): 1.00%; percentage inhibition, T. brucei ([12]; 90 uM): 100%; IC50 ([5]; cells printed in μM): 1000 nM
8 | (S)-(E)-3-(4-morpholinecarbonyltyrosyl)amino-5-phenyl-1-phenylsulfonyl-1-pentene [Mu-Tyr-HphVSPh] | – | – | – | – | – | – | – | – | – | – | – | 700,000 M^-1 sec^-1 | 297,000 M^-1 sec^-1 | kobs /[I]* (approximate second-order inactivation constant) ([2]; values marked *, 25° C., pH 6.2): 20,000 M^-1 sec^-1; kobs /[I]* (approximate second-order inactivation constant) [7]: 4,200,000 M^-1 sec^-1; inhibition of U251MGn migration [14]: 56%; inhibition of U87MG migration [15]: 75%
